The supplement of paper PMC10307832

How the values were obtained:
Test in all cases: relative viability (nuclei count vs DMSO), 5 days (fraction); higher = more cells survive
ABC-1 = test system: ABC-1
Method in brief: (§1)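 Five library-drug doses in √10 steps were combined with a fixed anchor-drug dose, or a single drug was given alone, by pin tool to lung cancer cell lines in 1536-well plates the day after seeding. Nuclei were stained and counted after 5 days. Relative viability is the nuclei count in treated wells over that in vehicle wells, taken as the median of duplicate plates.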

CAL-12T = test system: CAL-12T
Method in brief: as §1

COR-L 105 = test system: COR-L 105
Method in brief: as §1

ChaGo-K-1 = test system: ChaGo-K-1
Method in brief: as §1

EMC-BAC-2 = test system: EMC-BAC-2
Method in brief: as §1

EPLC-272H = test system: EPLC-272H
Method in brief: as §1

HCC-15 = test system: HCC-15
Method in brief: as §1

HCC-78 = test system: HCC-78
Method in brief: as §1

HOP-62 = test system: HOP-62
Method in brief: as §1

LXF-289 = test system: LXF-289
Method in brief: as §1

NCI-H1666 = test system: NCI-H1666
Method in brief: as §1

NCI-H1755 = test system: NCI-H1755
Method in brief: as §1

NCI-H1915 = test system: NCI-H1915
Method in brief: as §1

NCI-H1975 = test system: NCI-H1975
Method in brief: as §1

NCI-H2023 = test system: NCI-H2023
Method in brief: as §1

NCI-H2085 = test system: NCI-H2085
Method in brief: as §1

NCI-H2126 = test system: NCI-H2126
Method in brief: as §1

NCI-H3122 = test system: NCI-H3122
Method in brief: as §1

NCI-H322M = test system: NCI-H322M
Method in brief: as §1

NCI-H358 = test system: NCI-H358
Method in brief: as §1

NCI-H441 = test system: NCI-H441
Method in brief: as §1

UMC-11 = test system: UMC-11
Method in brief: as §1

SMILES: O=c1cc(N2CCOCC2)oc2c(-c3cccc4c3sc3ccccc34)cccc12 + Cc1cc(Nc2cc(N3CCN(C)CC3)nc(Sc3ccc(NC(=O)C4CC4)cc3)n2)n[nH]1 [Tozasertib] (partner 0.1 µM)
- relative viability (ABC-1; first compound 0.01 µM): 0.186
- relative viability (ABC-1; first compound 0.03162 µM): 0.178
- relative viability (ABC-1; first compound 0.1 µM): 0.222
- relative viability (ABC-1; first compound 0.3162 µM): 0.21
- relative viability (ABC-1; first compound 1 µM): 0.164
- relative viability (CAL-12T; first compound 0.01 µM): 0.354
- relative viability (CAL-12T; first compound 0.03162 µM): 0.248
- relative viability (CAL-12T; first compound 0.1 µM): 0.347
- relative viability (CAL-12T; first compound 0.3162 µM): 0.277
- relative viability (CAL-12T; first compound 1 µM): 0.288
- relative viability (COR-L 105; first compound 0.01 µM): 0.346
- relative viability (COR-L 105; first compound 0.03162 µM): 0.286
- relative viability (COR-L 105; first compound 0.1 µM): 0.373
- relative viability (COR-L 105; first compound 0.3162 µM): 0.303
- relative viability (COR-L 105; first compound 1 µM): 0.299
- relative viability (ChaGo-K-1; first compound 0.01 µM): 0.232
- relative viability (ChaGo-K-1; first compound 0.03162 µM): 0.209
- relative viability (ChaGo-K-1; first compound 0.1 µM): 0.198
- relative viability (ChaGo-K-1; first compound 0.3162 µM): 0.222
- relative viability (ChaGo-K-1; first compound 1 µM): 0.209
- relative viability (EMC-BAC-2; first compound 0.01 µM): 0.303
- relative viability (EMC-BAC-2; first compound 0.03162 µM): 0.29
- relative viability (EMC-BAC-2; first compound 0.1 µM): 0.313
- relative viability (EMC-BAC-2; first compound 0.3162 µM): 0.33
- relative viability (EMC-BAC-2; first compound 1 µM): 0.304
- relative viability (EPLC-272H; first compound 0.01 µM): 0.288
- relative viability (EPLC-272H; first compound 0.03162 µM): 0.327
- relative viability (EPLC-272H; first compound 0.3162 µM): 0.206
- relative viability (EPLC-272H; first compound 1 µM): 0.253
- relative viability (HCC-15; first compound 0.01 µM): 0.413
- relative viability (HCC-15; first compound 0.03162 µM): 0.379
- relative viability (HCC-15; first compound 0.1 µM): 0.433
- relative viability (HCC-15; first compound 0.3162 µM): 0.33
- relative viability (HCC-15; first compound 1 µM): 0.448
- relative viability (HCC-78; first compound 0.01 µM): 0.417
- relative viability (HCC-78; first compound 0.03162 µM): 0.359
- relative viability (HCC-78; first compound 0.1 µM): 0.417
- relative viability (HCC-78; first compound 0.3162 µM): 0.41
- relative viability (HCC-78; first compound 1 µM): 0.452
- relative viability (HOP-62; first compound 0.01 µM): 0.336
- relative viability (HOP-62; first compound 0.03162 µM): 0.315
- relative viability (HOP-62; first compound 0.1 µM): 0.402
- relative viability (HOP-62; first compound 0.3162 µM): 0.325
- relative viability (HOP-62; first compound 1 µM): 0.382
- relative viability (LXF-289; first compound 0.01 µM): 0.235
- relative viability (LXF-289; first compound 0.03162 µM): 0.216
- relative viability (LXF-289; first compound 0.1 µM): 0.218
- relative viability (LXF-289; first compound 0.3162 µM): 0.174
- relative viability (LXF-289; first compound 1 µM): 0.197
- relative viability (NCI-H1666; first compound 0.01 µM): 0.512
- relative viability (NCI-H1666; first compound 0.03162 µM): 0.56
- relative viability (NCI-H1666; first compound 0.1 µM): 0.579
- relative viability (NCI-H1666; first compound 0.3162 µM): 0.596
- relative viability (NCI-H1666; first compound 1 µM): 0.567
- relative viability (NCI-H1755; first compound 0.01 µM): 0.592
- relative viability (NCI-H1755; first compound 0.03162 µM): 0.669
- relative viability (NCI-H1755; first compound 0.1 µM): 0.693
- relative viability (NCI-H1755; first compound 0.3162 µM): 0.539
- relative viability (NCI-H1755; first compound 1 µM): 0.542
- relative viability (NCI-H1915; first compound 0.01 µM): 0.419
- relative viability (NCI-H1915; first compound 0.03162 µM): 0.438
- relative viability (NCI-H1915; first compound 0.1 µM): 0.485
- relative viability (NCI-H1915; first compound 0.3162 µM): 0.456
- relative viability (NCI-H1915; first compound 1 µM): 0.422
- relative viability (NCI-H1975; first compound 0.01 µM): 0.692
- relative viability (NCI-H1975; first compound 0.03162 µM): 0.657
- relative viability (NCI-H1975; first compound 0.1 µM): 0.958
- relative viability (NCI-H1975; first compound 0.3162 µM): 0.746
- relative viability (NCI-H1975; first compound 1 µM): 0.76
- relative viability (NCI-H2023; first compound 0.01 µM): 0.353
- relative viability (NCI-H2023; first compound 0.03162 µM): 0.402
- relative viability (NCI-H2023; first compound 0.1 µM): 0.438
- relative viability (NCI-H2023; first compound 0.3162 µM): 0.359
- relative viability (NCI-H2023; first compound 1 µM): 0.373
- relative viability (NCI-H2085; first compound 0.01 µM): 0.841
- relative viability (NCI-H2085; first compound 0.03162 µM): 0.813
- relative viability (NCI-H2085; first compound 0.1 µM): 0.741
- relative viability (NCI-H2085; first compound 0.3162 µM): 0.73
- relative viability (NCI-H2085; first compound 1 µM): 0.77
- relative viability (NCI-H2126; first compound 0.01 µM): 0.781
- relative viability (NCI-H2126; first compound 0.03162 µM): 0.839
- relative viability (NCI-H2126; first compound 0.1 µM): 0.839
- relative viability (NCI-H2126; first compound 0.3162 µM): 0.794
- relative viability (NCI-H2126; first compound 1 µM): 0.789
- relative viability (NCI-H3122; first compound 0.01 µM): 0.39
- relative viability (NCI-H3122; first compound 0.03162 µM): 0.418
- relative viability (NCI-H3122; first compound 0.1 µM): 0.417
- relative viability (NCI-H3122; first compound 0.3162 µM): 0.378
- relative viability (NCI-H3122; first compound 1 µM): 0.349
- relative viability (NCI-H322M; first compound 0.01 µM): 0.49
- relative viability (NCI-H322M; first compound 0.03162 µM): 0.464
- relative viability (NCI-H322M; first compound 0.1 µM): 0.485
- relative viability (NCI-H322M; first compound 0.3162 µM): 0.473
- relative viability (NCI-H322M; first compound 1 µM): 0.407
- relative viability (NCI-H358; first compound 0.01 µM): 0.113
- relative viability (NCI-H358; first compound 0.03162 µM): 0.102
- relative viability (NCI-H358; first compound 0.1 µM): 0.115
- relative viability (NCI-H358; first compound 0.3162 µM): 0.0946
- relative viability (NCI-H358; first compound 1 µM): 0.101
- relative viability (NCI-H441; first compound 0.01 µM): 0.671
- relative viability (NCI-H441; first compound 0.03162 µM): 0.713
- relative viability (NCI-H441; first compound 0.1 µM): 0.692
- relative viability (NCI-H441; first compound 0.3162 µM): 0.658
- relative viability (NCI-H441; first compound 1 µM): 0.719
- relative viability (UMC-11; first compound 0.01 µM): 0.194
- relative viability (UMC-11; first compound 0.03162 µM): 0.208
- relative viability (UMC-11; first compound 0.1 µM): 0.202
- relative viability (UMC-11; first compound 0.3162 µM): 0.209
- relative viability (UMC-11; first compound 1 µM): 0.202
